Consider 7 compounds from patent publication US20020045566A1, “Selective maxi-K potassium channel openers functional under conditions of high intracellular calcium concentration, methods and uses thereof” (priority 2000, published 2002).

Molecules are shown by their SMILES.

The target in data set [1] is T1, human brain maxi-K channel α-subunit (hSlo) (Homo sapiens, UniProt Q12791).
T1 construct: expressed in transfected cells; host or cells: HEK-293, stably transfected (pcDNA3, G418 selection)
T1 sequence (Q12791 1-1178 isoform Q12791-5): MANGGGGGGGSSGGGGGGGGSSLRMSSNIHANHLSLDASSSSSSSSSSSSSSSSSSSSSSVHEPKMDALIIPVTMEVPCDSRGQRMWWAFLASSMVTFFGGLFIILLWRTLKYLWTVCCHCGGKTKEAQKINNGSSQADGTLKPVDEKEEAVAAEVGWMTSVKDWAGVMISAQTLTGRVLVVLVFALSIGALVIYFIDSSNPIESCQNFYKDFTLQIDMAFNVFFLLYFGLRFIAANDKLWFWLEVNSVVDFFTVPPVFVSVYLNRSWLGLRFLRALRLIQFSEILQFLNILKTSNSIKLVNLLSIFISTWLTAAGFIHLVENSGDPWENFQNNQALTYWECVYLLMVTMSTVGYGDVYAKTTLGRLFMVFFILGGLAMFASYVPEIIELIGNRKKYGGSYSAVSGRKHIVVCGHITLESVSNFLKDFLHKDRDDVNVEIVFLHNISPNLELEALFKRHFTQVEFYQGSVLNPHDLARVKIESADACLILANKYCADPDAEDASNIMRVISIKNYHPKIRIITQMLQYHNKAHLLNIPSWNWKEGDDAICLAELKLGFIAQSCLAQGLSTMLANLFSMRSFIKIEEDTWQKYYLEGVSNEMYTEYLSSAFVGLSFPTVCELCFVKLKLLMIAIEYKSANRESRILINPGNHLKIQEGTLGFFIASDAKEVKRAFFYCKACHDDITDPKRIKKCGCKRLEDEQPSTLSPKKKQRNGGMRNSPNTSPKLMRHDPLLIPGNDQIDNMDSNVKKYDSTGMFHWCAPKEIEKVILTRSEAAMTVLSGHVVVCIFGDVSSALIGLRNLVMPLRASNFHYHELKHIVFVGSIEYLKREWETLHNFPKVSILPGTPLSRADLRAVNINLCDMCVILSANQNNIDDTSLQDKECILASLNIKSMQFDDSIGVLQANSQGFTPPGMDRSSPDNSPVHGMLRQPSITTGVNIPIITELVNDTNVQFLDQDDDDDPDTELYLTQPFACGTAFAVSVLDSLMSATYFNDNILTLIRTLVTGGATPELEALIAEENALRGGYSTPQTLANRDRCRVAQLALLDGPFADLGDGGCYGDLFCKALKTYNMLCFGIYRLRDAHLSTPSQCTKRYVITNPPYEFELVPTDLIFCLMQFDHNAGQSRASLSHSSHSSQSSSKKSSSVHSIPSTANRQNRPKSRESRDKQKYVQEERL
Nature of the data set: whole-cell patch-clamp of hSlo-mediated outward currents in transfected HEK-293 cells. It is filed as cell-based. Conditions: for effect on hSlo-mediated current amplitudes: BMS-A at 1 μM. As to the method: HEK-293 cells were transfected with 1-2 μg of pcDNA3 expression plasmid containing hSlo α-subunit cDNA (S. I. Dworetzky et al., 1994, Brain Res. Mol. Brain Res., 27:189-193) using lipofectamine (Gibco) according to the manufacturer's protocol. Cells stably transfected with hSlo were selected in medium supplemented with 0.5 mg/ml Geneticin (G418; Sigma). Transfected HEK-293 cells were grown in Minimum Essential Medium (MEM; Gibco) supplemented with 10% fetal calf serum and G418 at 37° C. in a humidified atmosphere of 5% CO2 and 95% […]. Cells were plated on fibronectin-coated glass cover slips in 35 mm culture dishes.
Outward K^+-mediated currents were examined using standard whole-cell patch-clamp techniques (P. O. Hamill et al., 1981, Pflugers Arch., 391:85-100). Records were filtered at 2 kHz prior to digitization at 10 or 20 kHz. The bathing solution contained the following components: NaCl, 145 mM; KCl, 3 mM; CaCl2, 2.5 mM; MgCl2 1 mM; HEPES, 10 mM; pH 7.4. The recording pipettes were pulled from thick-walled borosilicate glass (2-4 Mω in bathing solution), fire polished and filled with a solution containing: KCl 140 mM; MOPS, 20 mM; EGTA, 1.0 mM; pH 7.2, with CaCl2 adjusted to produce the required [Ca^2+]free (determined using the EQCAL program (Biosoft, Cambridge) incorporating the methods of A. Fabiato and F. Fabiato, 1995, J. Physiol., Paris. 75:463-505.
Stimulus generation and data acquisition were controlled by either an Axopatch 200 amplifier or an EPC 9 amplifier, and the Pulse program suite. Data were stored and analyzed off-line. The cell holding potential was −100 mV for experiments with 2.5 μM [Ca^2+]i, and −80 or […] for the remaining Ca^2+ concentrations (1 μM, 250 nM and 50 nM). A series of 10 mV depolarizing voltage steps (100 to 200 ms) appropriate to the [Ca^2+]i was applied to evoke a family of outward currents. Series resistance was ≦6Mω before 80% compensation. Currents were measured at steady state near the end of the voltage pulse.
Using the whole-cell voltage-clamp technique (R. Penner, 1995, “A Practical Guide to Patch Clamping”; In: Single Channel Recording, 2nd Edition, (Eds. B. Sakmann and E. Neher), Plenum Press, New York, pp. 3-30), hSlo-mediated outward currents were recorded with pipettes containing different concentrations of Ca^2+ (i.e., [Ca^2+]free=50 nM, 1 μM or 2.5 μM). Clamped cells were exposed to 5 μM of the fluoro-oxindole opener compound BMS-204352, or the chloro-oxindole opener compound BMS-225113, as described in Examples 1.
For outside-out and whole cell patch analyses, the solutions used are normal extracellular Na^+ solution containing (in mM): NaCl, 145; KCl, 3; CaCl2, 2.5; MgCl2, 1; HEPES, 10; ±glucose, 10; pH 7.4. Intracellular and extracellular medium for inside-out patches, or pipette solution for whole-cell patch, comprise (in mM): KCl, 140; MOPS, 20; EGTA, 1.0; pH 7.2 CaCl2 adjusted to produce the required [Ca^2+]free (determined using the EQCAL program; Biosoft, Cambridge). The cell holding potential for whole-cell recordings is −80 or −60 mV and depolarizing voltage steps appropriate to the internal Ca^2+ concentration are applied (at high intracellular Ca^2+ seals become unstable at higher clamp voltages, and are stable at lower voltages for shorter periods).
This example describes experiments that were conducted to determine the effects of intracellular Ca^2+ concentration ([Ca^2+]i) and the use of the BMS-A compound (see U.S. Pat. No. 5,869,509, Example 82), versus a known benzimidazolone compound called NS-1619 [D. Strbaek et al., 1996, Neuropharmacology, 35:903-914 and M. McKay et al., 1997, J. Neurophysiology, 71:1873], on whole-cell currents in HEK-293 cells genetically engineered to express a human brain hSlo α-subunit. For these experiments, the cell holding potential was either −80 or −100 mV and a series of 10 mV depolarizing voltage steps appropriate to the [Ca^2+]i, was applied. […]
In general terms: Patch clamp records ionic current or voltage across a cell membrane.

The test system of data set [2] is cortical infarct volume. As to the kind of experiment: permanent MCA occlusion in SHR rat, MRI. Format: in vivo, spontaneously hypertensive rats (SHR). As to conditions: 0.3 mg/kg bolus IV 2 hours after occlusion onset; at 5.5 and 24 hours after occlusion.
A short description of data set [3]: brain penetrance and pharmacokinetics after IV administration in rat. Format: in vivo. An excerpt:
The ischemic penumbra is an area of low vascular perfusion. For a neuroprotective agent to reach ischemic neurons at therapeutic doses following the onset of a stroke, it should enter the brain at very high levels.

Another data set can be described thus: teratogenicity in rats. It is filed as in vivo. As to the method:
(§1) BMS-204352 has an encouraging preclinical safety profile. […] In single- and multiple-dose studies unaffected by drug at doses at least 3×higher than the highest cytotoxic target organ changes following IV administration for 1 month at doses up to 10 mg/kg/day (rats) and for 10 days at doses up to 20 mg/kg/day (dogs).

Data set [4] is described as follows: teratogenicity in rabbits. It is filed as in vivo. As to the method: as §1
Data set [5] has as its system Ca^2+-activated chloride (Cl^−) channels (native oocyte channels). As to the kind of experiment: ion channel specificity, Cl- currents (electrophysiology). Format: cell-based, Xenopus. Conditions: native oocyte Ca2+-activated Cl- channels. As to the method: (§2) To determine the specificity of the effects of the opener compounds, including BMS-204352, on maxi-K potassium channels, the compounds were tested against a representative sample of cloned and native ion channels expressed in Xenopus oocytes and clonal cell lines and were assayed using standard electrophysiological techniques readily known to and practiced by those having skill in the art. These included voltage-dependent potassium channels (Kv1.3, Kv1.5, Kv2.1), Ca^2+-activated chloride (Cl^−) channels (native oocyte channels), the cystic fibrosis transmembrane conductance regulator Cl^− channel (CFTR) and Ca^2+ currents (native GH3 cell Ca^2+ current).

The test system of data set [6] is cortical infarct volume. Nature of the data set: PUM,PIC,TCC model of acute stroke in Wistar normotensive rat. Conditions: administered 2 hours post-occlusion. It is filed as in vivo. As for the experimental part:
Permanent focal occlusion of the proximal middle cerebral artery (MCA) is performed using a modified version of the method originally developed by A. Tamura et al. (1981, J. Cerebr. Blood Flow Metab., 1:53-60). In the permanent unilateral MCA, permanent ipsilateral common carotid arteries (CCA) and transient contralateral CCA (PUM,PIC,TCC model), normotensive male Wistar rats are anesthetized with a combination of ketamine (40 mg/kg, i.m.) and xylazine (4.5 mg/kg, i.m.). After exposure of the left MCA via the subtemporal approach, a 2 mm section of the artery is electrocauterized and severed. Within 5 minutes, both CCA are exposed and occluded. […]
The contralateral temporary CCA occlusion reduces collateral flow sufficiently to allow for consistent, large cortical infarcts (S. Brint et al., 1988, Cerebr. Blood Flow Metab., 8:474-485). […] Animals are maintained throughout at 37° C. and monitored by means of a rectal probe. At 24 hours after the occlusion, animals are sacrificed and brains are removed and evaluated by triphenyltetrazolium chloride (TTC) staining to determine the area of infarct. Brain slices are photographed and infarct volumes determined with the assistance of computerized image analysis. Data are analyzed using ANOVAs and appropriate post-hoc tests (Dunnett's).

A short description of data set [7]: cardiovascular safety in anesthetized and conscious dogs. Format: in vivo. As to conditions: doses at least 3× higher than 1 mg/kg IV. As for the experimental part:
as §1

A short description of data set [8]: cardiovascular safety in rats. Format: in vivo. As to conditions: doses at least 3× higher than the highest neuroprotective dose of 1 mg/kg IV. As for the experimental part:
as §1

The next data set has as its target T2, dopamine D3 receptor (Homo sapiens, UniProt P35462).
T2 construct: PanLabs (contract screen)
As to the kind of experiment: [3H]spiperone binding, PanLabs screen. Conditions: initial test. The text has this:
(§3) BMS-204352 was also examined against a binding screen of over 50 receptors and enzyme systems (PanLabs ProfilingScreen® and DiscoveryScreen®). These systems include representatives of most G-protein coupled receptor families, ligand-gated ion channel families, as well as some voltage-gated ion channel binding sites such as the dihydropyridine receptor of L-type Ca^2+ channels. […] The significance of modest inhibition of σ1 ligand binding is unknown.

Data set [9] has as its system voltage-dependent potassium channels (Kv1.3, Kv1.5, Kv2.1). As to the kind of experiment: ion channel specificity, Kv currents (electrophysiology). It is filed as cell-based. As for the experimental part: as §2
Data set [10] can be described thus: genotoxicity in vitro and in vivo. As for the experimental part:
as §1

The target of a further data set is T3, σ1 (Homo sapiens, UniProt Q99720).
T3 construct: PanLabs (contract screen)
T3 sequence (Q99720 whole entry): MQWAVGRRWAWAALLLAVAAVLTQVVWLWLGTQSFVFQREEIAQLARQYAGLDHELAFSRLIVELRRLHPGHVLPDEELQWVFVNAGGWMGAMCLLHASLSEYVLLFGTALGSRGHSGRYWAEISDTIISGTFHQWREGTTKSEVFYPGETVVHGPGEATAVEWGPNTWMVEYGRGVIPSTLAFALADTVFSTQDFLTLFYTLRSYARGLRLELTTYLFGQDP
Nature of the data set: [3H](+)pentazocine binding, PanLabs screen.
Excerpt: as §3

Data set [11] has as its system native GH3 cell Ca^2+ current. As to the kind of experiment: ion channel specificity, native Ca2+ currents. Format: cell-based. Conditions: at 1 and 10 μM; similar reductions due to current rundown in control cells. As to the method: as §2
Data set [12] deals with cortical infarct volume. As to the kind of experiment: permanent MCA occlusion in SHR rat. Format: in vivo, spontaneously hypertensive rats (SHR). Conditions: administered 2 hours following occlusion onset, doses neuroprotective at earlier time points.

T2 sequence (P35462 whole entry): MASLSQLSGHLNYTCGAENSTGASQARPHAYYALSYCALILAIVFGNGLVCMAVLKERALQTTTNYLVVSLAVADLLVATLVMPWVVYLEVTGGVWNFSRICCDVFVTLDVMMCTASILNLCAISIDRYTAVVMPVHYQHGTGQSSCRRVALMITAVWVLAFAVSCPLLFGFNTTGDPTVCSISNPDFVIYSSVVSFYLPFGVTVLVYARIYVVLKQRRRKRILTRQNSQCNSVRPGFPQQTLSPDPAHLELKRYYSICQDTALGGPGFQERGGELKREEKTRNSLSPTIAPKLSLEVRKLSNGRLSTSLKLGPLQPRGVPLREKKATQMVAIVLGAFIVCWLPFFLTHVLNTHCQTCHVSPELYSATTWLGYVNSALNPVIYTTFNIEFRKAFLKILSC

Take `COc1ccc(Cl)cc1C1(Cl)C(=O)Nc2cc(C(F)(F)F)ccc21` (racemic) [BMS-225113, (±)-(5-chloro-2-methoxyphenyl)1,3-dihydro-3-chloro-6-(trifluoromethyl)-2H-indol-2-one]: the “effect on hSlo-mediated currents” value in data set [1] (compound 5 μM, [Ca2+]i 50 nM, 250 nM, 1 μM or 2.5 μM) was “significant increases only at the highest concentrations of Ca^2+ (1 μM and 2.5 μM)”. In addition, the “effect on maxi-K currents” value in [1] (compound 10 μM, [Ca2+]i 250 nM, 1.0 μM, 2.5 μM (FIG. 3A)) was “greater increases in maxi-K currents under conditions of higher [Ca^2+]i”.
Regarding `COc1ccc(Cl)cc1C1(F)C(=O)Nc2cc(C(F)(F)F)ccc21` (racemic) [Compound 1, (±)-(5-Chloro-2-methoxyphenyl)-1,3-dihydro-3-fluoro-6-(trifluoromethyl)-2H-indol-2-one], the “cortical infarct volume (MRI)” value with cortical infarct volume [2] is “significant reduction in cortical infarct volume”.
Turning to `COc1ccc(Cl)cc1[C@]1(F)C(=O)Nc2cc(C(F)(F)F)ccc21` [BMS-204352, (3S)-(+)-(5-Chloro-2-methoxyphenyl)-1,3-dihydro-3-fluoro-6-(trifluoromethyl)-2H-indol-2-one], the Tmax (usually the time at which the peak concentration occurs) in data set [3] (5 mg/kg, rat brain, IV administration) is 15 min. In addition, in data set [3] (brain, rat, 5 mg/kg IV bolus dose), the Cmax (as a rule, the highest concentration seen after dosing) was greater than 10000 ng/g. Further, the brain half life in data set [3] (rat, IV) came out at 114 min. Also, the plasma half life in [3] (rat, IV) is 96 min. Besides, the “ratio of brain to plasma of the total compound detected” value in data set [3] (rat, over an 8 hour period) came out at 9.6. For the same compound, the teratogenicity entry (in the data set “teratogenicity in rats”; in data set [4]) was “not teratogenic” in each case. In data set [5], the “effect on Cl- currents” value is recorded as “no significant effect”. Further, the “maximum reduction of cortical infarct volume” value with cortical infarct volume [6] turned out to be 41%. For the same compound, the “typical reductions of cortical infarct volume” value in the data set on cortical infarct volume [6] was 20-30%. Besides, the “heart rate and mean arterial blood pressure” value in [7] and in data set [8] was “unaffected” throughout. The inhibition – broadly, the drop in the measured response relative to a control, in per cent – at 10 µM at dopamine D3 receptor is 74%; at σ1, 54%. Further, the “effect on Kv currents” value in [9] is reported as “no significant effect”. Also, in data set [10], the genotoxicity result is reported as “not genotoxic”. Besides, the “reduction of native Ca2+ current” value in data set [11] is 15-16%.
As to `O=c1oc(-c2ccc(C(F)(F)F)cc2)nn1Cc1cc(Cl)ccc1O` [BMS-A, 3-[(5-chloro-2-hydroxyphenyl)methyl]-5-[4-(trifluoromethyl)phenyl]-1,3,4-oxadiazol-2-(3H)-one], the results for the “effect on hSlo-mediated current amplitudes” value in data set [1] ([Ca2+]i 50 nM) and in data set [1] ([Ca2+]i 2.5 μM) were “decreased current amplitudes over a wide range of voltages” and “increased hSlo-mediated current amplitudes at the highest voltages”, respectively.
Take `CCc1cccc(N(C)C(N)=Nc2cccc3ccccc23)c1` [CNS-1102]: in the data set on cortical infarct volume [12], the neuroprotection entry was “ineffective”.
With `C[C@]12N[C@H](Cc3ccccc31)c1ccccc12` [MK-801], in the data set with cortical infarct volume [12], the neuroprotection entry is listed as “ineffective”.
As to `O=c1[nH]c2cc(C(F)(F)F)ccc2n1-c1cc(C(F)(F)F)ccc1O` [NS-1619, reference compound], the “effect on hSlo-mediated current amplitudes” value in data set [1] ([Ca2+]i 50 nM) and in [1] ([Ca2+]i 2.5 μM) was “increasing the hS/omediated current amplitudes at upper voltages” in each case.
